Results on four compounds are retold here after ChEMBL document CHEMBL1135816, “6-Aryl-1,4-dihydro-benzo[d][1,3]oxazin- 2-ones: a novel class of potent, selective, and orally active nonsteroidal progesterone receptor antagonists” (J Med Chem, 2002).

Each structure is given as a SMILES string. pIC50: −log10 of the molar value.

In assay [1] the target is T1, Mineralocorticoid receptor (Homo sapiens, UniProt P08235).
T1 sequence (P08235 whole entry): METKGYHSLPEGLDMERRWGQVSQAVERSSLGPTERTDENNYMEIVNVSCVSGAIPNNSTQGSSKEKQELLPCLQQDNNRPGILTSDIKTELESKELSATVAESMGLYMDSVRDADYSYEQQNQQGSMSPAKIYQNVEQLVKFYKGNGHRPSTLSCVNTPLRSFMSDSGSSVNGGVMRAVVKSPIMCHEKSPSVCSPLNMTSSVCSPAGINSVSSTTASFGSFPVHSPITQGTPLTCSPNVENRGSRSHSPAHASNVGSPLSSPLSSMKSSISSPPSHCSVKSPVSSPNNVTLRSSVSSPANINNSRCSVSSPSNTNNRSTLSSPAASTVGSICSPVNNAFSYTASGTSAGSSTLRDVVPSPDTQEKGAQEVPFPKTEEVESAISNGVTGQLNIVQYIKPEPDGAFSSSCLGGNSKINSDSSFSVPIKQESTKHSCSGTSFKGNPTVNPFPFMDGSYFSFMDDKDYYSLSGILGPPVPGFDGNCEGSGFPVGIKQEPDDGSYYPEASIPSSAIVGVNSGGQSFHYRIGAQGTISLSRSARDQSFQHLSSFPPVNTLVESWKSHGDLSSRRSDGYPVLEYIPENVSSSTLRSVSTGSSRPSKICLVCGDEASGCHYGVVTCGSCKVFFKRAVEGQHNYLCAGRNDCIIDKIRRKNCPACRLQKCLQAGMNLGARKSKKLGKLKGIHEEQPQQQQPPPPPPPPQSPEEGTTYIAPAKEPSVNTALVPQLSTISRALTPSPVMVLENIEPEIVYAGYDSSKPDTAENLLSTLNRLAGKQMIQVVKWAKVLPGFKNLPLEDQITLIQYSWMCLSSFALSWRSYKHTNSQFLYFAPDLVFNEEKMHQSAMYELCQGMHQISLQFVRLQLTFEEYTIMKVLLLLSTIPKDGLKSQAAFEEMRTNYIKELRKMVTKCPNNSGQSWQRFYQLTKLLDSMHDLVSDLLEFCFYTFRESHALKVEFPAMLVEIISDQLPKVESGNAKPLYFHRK
The assay is described as follows: Antagonist activity against the Mineralocorticoid Receptor (MR). It counts as functional.

The next assay concerns the target T2, Glucocorticoid receptor (Homo sapiens, UniProt P04150).
T2 sequence (P04150 whole entry): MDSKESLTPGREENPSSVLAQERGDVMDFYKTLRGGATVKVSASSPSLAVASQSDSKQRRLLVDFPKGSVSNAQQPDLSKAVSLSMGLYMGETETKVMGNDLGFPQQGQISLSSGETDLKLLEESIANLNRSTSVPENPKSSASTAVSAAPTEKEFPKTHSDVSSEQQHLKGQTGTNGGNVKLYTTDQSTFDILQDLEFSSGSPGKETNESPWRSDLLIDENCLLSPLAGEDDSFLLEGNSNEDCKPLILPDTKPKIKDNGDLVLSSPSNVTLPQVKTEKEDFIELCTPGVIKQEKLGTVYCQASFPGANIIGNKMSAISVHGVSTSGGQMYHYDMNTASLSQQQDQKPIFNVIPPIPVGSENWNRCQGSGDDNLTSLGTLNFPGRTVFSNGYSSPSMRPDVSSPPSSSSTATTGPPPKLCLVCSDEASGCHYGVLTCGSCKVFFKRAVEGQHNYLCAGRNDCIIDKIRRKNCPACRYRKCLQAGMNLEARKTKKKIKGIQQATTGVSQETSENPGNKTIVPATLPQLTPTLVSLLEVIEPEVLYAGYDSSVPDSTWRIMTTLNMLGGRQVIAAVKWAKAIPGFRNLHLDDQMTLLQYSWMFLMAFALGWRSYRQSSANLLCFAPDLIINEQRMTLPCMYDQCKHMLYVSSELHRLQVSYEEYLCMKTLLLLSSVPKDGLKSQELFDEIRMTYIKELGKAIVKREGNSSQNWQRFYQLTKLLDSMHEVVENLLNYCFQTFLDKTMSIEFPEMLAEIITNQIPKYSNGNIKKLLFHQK
In words: Antagonist activity against the Glucocorticoid Receptor (GR). It counts as functional.

The target in a further assay is T3, Androgen receptor (Homo sapiens, UniProt P10275).
T3 sequence (P10275 whole entry): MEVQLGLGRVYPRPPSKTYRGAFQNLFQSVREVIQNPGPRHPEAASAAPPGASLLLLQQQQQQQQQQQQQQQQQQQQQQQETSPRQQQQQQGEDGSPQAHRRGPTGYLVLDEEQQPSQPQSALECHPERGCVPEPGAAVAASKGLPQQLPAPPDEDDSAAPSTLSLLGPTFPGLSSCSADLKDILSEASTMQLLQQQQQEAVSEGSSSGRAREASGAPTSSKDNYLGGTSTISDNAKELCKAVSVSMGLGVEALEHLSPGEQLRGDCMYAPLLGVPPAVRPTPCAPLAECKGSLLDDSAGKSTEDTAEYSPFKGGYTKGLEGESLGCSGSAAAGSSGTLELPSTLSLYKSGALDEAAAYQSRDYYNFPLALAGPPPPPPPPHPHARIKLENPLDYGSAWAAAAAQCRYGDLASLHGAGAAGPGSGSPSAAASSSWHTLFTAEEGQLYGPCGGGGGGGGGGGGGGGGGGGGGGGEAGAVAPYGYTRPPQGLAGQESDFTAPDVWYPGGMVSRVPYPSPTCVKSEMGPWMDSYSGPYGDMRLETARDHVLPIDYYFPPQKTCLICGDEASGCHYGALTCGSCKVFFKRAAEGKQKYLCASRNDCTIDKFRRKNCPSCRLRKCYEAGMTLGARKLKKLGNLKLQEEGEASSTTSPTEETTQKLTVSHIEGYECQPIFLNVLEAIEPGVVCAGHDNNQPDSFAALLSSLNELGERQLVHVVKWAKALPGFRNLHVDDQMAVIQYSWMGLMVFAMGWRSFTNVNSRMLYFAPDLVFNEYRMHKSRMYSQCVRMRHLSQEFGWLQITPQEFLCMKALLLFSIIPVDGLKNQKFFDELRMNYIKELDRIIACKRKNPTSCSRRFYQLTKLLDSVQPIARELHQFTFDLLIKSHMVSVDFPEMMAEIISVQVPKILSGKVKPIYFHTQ
The assay is described as follows: Antagonist activity against the Androgen Receptor (AR).

Take `CC1(C)OC(=O)Nc2ccc(-c3csc(C#N)c3)cc21`: the pIC50 in assay [1] was 5.86; against Glucocorticoid receptor, 5.73; against Androgen receptor, 6.55.
Take `CC1(C)OC(=O)Nc2ccc(-c3coc(C#N)c3)cc21`: the pIC50 is under 5.00 in assay [1], under 5.00 at Glucocorticoid receptor and 6.89 on Androgen receptor.
In the case of `CC1(C)OC(=O)Nc2ccc(-c3ccc(F)c(Cl)c3)cc21`, the pIC50 in assay [1] was 5.60; at Glucocorticoid receptor it was 5.59; against Androgen receptor, 6.68.
For the compound `CC1(C)OC(=O)Nc2ccc(-c3cc(F)cc(C#N)c3)cc21`, the figures for the pIC50 (in assay [1]; on Glucocorticoid receptor; against Androgen receptor) were 5.63, 5.76 and 5.89, respectively.

Usually pIC50 stands for the negative decadic logarithm of the IC50, by convention in mol/L. Low values mean a large IC50, high ones a small IC50.
